According to ChEMBL document CHEMBL1909046, “DrugMatrix in vitro pharmacology data”:

Experiments:
Progesterone receptor = biological target: T1, Progesterone receptor (Bos taurus, UniProt Q690N0); assay: DRUGMATRIX: Progesterone radioligand binding (ligand: [3H] R-5020); assay type: tissue-based, Uterus; settings: Not Active = under 50% inhibition at 10 µM; for Ki: read-out: Ki
T1 sequence (Q690N0 whole entry): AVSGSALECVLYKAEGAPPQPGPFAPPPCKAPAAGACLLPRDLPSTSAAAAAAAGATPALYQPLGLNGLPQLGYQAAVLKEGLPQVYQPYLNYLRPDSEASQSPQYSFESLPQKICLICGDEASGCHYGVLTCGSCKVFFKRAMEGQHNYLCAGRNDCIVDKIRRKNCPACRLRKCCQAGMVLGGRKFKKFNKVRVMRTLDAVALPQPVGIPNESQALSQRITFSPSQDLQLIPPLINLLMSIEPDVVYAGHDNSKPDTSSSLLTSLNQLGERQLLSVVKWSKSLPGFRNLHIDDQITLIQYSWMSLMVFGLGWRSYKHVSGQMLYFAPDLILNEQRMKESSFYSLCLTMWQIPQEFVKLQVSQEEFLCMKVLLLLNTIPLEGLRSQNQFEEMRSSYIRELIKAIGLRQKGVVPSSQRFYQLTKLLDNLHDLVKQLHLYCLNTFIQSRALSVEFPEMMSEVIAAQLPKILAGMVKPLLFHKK

Cytochrome P450 2E1 = Cytochrome P450 2E1 (Homo sapiens, UniProt P05181); settings: bti-tn-5b1-4; note: in other assays of this panel Not Active means under 50% inhibition at 10 µM
Cytochrome P450 2E1, sequence (P05181 whole entry): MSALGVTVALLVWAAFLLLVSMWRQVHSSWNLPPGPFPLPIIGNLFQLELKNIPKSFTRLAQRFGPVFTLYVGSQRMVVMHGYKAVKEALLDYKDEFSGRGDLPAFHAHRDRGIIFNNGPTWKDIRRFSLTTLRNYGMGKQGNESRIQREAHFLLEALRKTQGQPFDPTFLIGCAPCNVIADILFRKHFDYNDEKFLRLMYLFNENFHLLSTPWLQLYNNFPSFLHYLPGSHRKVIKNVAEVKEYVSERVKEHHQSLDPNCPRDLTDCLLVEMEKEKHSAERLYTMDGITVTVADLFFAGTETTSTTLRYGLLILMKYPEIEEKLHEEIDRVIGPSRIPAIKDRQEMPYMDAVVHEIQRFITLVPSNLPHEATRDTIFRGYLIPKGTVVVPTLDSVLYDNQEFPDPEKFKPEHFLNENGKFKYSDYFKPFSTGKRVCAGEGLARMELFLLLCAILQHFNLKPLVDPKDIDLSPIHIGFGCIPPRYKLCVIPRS

[1] = biological target: Sodium-dependent noradrenaline transporter (Homo sapiens, UniProt P23975); assay: DRUGMATRIX: Norepinephrine Transporter radioligand binding (ligand: [125I] RTI-55); assay type: cell membranes, MDCK, Membrane; settings: Not Active = under 50% inhibition at 10 µM
Sodium-dependent noradrenaline transporter, sequence (P23975 whole entry): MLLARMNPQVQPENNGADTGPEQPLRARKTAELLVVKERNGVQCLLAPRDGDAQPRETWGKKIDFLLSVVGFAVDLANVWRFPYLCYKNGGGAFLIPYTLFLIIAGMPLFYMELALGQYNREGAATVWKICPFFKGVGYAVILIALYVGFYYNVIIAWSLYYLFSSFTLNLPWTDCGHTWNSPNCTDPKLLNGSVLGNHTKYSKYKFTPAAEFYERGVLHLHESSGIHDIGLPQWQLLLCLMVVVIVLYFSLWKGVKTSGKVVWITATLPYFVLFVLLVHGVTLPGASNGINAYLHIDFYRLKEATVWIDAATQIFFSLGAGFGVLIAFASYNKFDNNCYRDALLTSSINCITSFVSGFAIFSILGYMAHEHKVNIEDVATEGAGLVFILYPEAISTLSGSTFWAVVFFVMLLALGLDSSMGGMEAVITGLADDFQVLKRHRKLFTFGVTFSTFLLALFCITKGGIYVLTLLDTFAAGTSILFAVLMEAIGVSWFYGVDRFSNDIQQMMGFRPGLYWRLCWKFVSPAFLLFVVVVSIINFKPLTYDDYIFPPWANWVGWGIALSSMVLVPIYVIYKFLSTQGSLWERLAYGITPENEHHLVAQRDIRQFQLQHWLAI

[2] = biological target: T2, Alpha-1B adrenergic receptor (Rattus norvegicus, UniProt P15823); assay: DRUGMATRIX: Alpha-1B adrenergic receptor radioligand binding (ligand: prazosin); assay type: cell membranes, Wistar, Liver, Membrane; settings: Not Active = under 50% inhibition at 10 µM
T2 sequence (P15823 whole entry): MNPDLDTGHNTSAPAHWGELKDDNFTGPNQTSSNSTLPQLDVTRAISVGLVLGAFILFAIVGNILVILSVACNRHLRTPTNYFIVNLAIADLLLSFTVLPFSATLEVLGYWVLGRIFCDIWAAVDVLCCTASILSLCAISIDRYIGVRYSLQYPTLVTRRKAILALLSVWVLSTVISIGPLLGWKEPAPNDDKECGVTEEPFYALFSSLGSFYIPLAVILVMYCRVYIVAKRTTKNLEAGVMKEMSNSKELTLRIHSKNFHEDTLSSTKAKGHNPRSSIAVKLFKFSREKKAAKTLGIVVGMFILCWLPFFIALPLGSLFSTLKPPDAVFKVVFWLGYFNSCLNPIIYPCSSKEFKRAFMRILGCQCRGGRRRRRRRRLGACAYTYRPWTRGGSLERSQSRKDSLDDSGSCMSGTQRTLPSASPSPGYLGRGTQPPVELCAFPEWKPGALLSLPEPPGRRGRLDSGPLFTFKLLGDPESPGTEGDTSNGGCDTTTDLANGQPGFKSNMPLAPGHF

[3] = biological target: Kappa-type opioid receptor (Homo sapiens, UniProt P41145); assay: DRUGMATRIX: Opiate kappa (OP2, KOP) radioligand binding (ligand: [3H] Diprenorphine); assay type: cell membranes, HEK293, Membrane; settings: Not Active = under 50% inhibition at 10 µM
Kappa-type opioid receptor, sequence (P41145 whole entry): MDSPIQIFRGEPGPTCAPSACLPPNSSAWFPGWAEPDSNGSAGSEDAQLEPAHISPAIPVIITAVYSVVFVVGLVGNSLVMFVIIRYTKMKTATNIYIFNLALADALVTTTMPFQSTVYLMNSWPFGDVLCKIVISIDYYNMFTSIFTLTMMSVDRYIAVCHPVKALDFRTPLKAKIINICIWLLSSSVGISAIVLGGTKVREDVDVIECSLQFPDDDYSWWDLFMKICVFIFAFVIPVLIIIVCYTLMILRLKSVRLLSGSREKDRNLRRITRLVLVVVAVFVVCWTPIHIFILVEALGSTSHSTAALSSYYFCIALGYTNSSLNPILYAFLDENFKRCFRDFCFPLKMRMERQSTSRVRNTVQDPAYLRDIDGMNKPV

| SMILES | IC50 (Progesterone receptor) | IC50 (Cytochrome P450 2E1) | Ki (Cytochrome P450 2E1) | IC50 ([1]; mdck) | IC50 [2] | IC50 ([3]; hek293) | IC50 ([1]; read-out: IC50) | Ki ([1]; read-out: Ki) | IC50 (Progesterone receptor; read-out: IC50) | Ki (Progesterone receptor) | Ki [3] | IC50 ([3]; read-out: IC50) |
| --- | --- | --- | --- | --- | --- | --- | --- | --- | --- | --- | --- | --- |
| O=C(c1ccccc1)c1ccc2n1CCC2C(=O)O (stereo not given) [KETOROLAC] | Not Active | Not Active | Not Active | Not Active | Not Active | Not Active | – | – | – | – | – | – |
| Oc1ccc(/C=C/c2cc(O)cc(O)c2)cc1 [RESVERATROL] | – | Not Active | Not Active | – | Not Active | – | 2310 nM | 2290 nM | – | – | – | – |
| C#C[C@]1(O)CC[C@H]2[C@@H]3[C@H](C)CC4=C(CCC(=O)C4)[C@H]3CC[C@@]21C [TIBOLONE] | – | Not Active | Not Active | Not Active | Not Active | Not Active | – | – | 220 nM | 28.7 nM | – | – |
| CCN(CC)N=O [N-NITROSODIETHYLAMINE] | Not Active | Not Active | Not Active | Not Active | Not Active | – | – | – | – | – | – | – |
| CC#C[C@]1(O)CC[C@H]2[C@@H]3CCC4=CC(=O)CCC4=C3[C@@H](c3ccc(N(C)C)cc3)C[C@@]21C [MIFEPRISTONE] | – | Not Active | Not Active | Not Active | Not Active | – | – | – | – | – | 8040 nM | 20100 nM |
| CC(O)C(=O)O (stereo not given) [LACTIC ACID] | Not Active | Not Active | Not Active | Not Active | Not Active | Not Active | – | – | – | – | – | – |
| Cc1[nH]c(=O)c(C#N)cc1-c1ccncc1 [MILRINONE] | – | Not Active | Not Active | Not Active | Not Active | Not Active | – | – | – | – | – | – |
| CC(Cl)(Cl)Cl [TRICHLOROETHANE] | Not Active | Not Active | Not Active | Not Active | Not Active | – | – | – | – | – | – | – |
| CC(=O)O[C@]1(C(C)=O)CC[C@H]2[C@@H]3C[C@H](C)C4=CC(=O)CC[C@]4(C)[C@H]3CC[C@@]21C [MEDROXYPROGESTERONE ACETATE] | – | Not Active | Not Active | Not Active | Not Active | Not Active | – | – | 2.25 nM | 0.293 nM | – | – |
| CCN(CC)CCNC(=O)c1cc(Cl)c(N)cc1OC [METOCLOPRAMIDE] | Not Active | Not Active | Not Active | Not Active | Not Active | Not Active | – | – | – | – | – | – |
| Cc1nnc(NS(=O)(=O)c2ccc(N)cc2)s1 [SULFAMETHIZOLE] | Not Active | Not Active | Not Active | Not Active | Not Active | Not Active | – | – | – | – | – | – |
| OC[C@@H](O)[C@@H](O)[C@H](O)[C@H](O)CO [MANNITOL] | Not Active | Not Active | Not Active | Not Active | Not Active | – | – | – | – | – | – | – |
| Cc1cn([C@H]2C=C[C@@H](CO)O2)c(=O)[nH]c1=O [STAVUDINE] | Not Active | Not Active | Not Active | Not Active | Not Active | Not Active | – | – | – | – | – | – |
